From paper PMC2855214 (Biochemistry, 2010)

Target: T1, human UMP/CMP kinase (Homo sapiens, UniProt P30085)
T1 sequence (P30085 1-196): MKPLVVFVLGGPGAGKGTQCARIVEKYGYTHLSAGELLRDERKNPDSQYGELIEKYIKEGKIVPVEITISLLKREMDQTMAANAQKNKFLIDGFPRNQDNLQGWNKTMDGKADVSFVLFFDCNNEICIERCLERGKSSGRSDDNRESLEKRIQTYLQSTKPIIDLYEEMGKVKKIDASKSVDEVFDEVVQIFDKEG
Assay: preparative enzymatic phosphorylation, product NMR
Format: biochemical
Details: ATP, Mg2+, pH 8, 37 °C

Q: Which “preparative enzymatic phosphorylation, product NMR” value does the source give for `Nc1ccn([C@@H]2O[C@H](COP(=O)(O)O)[C@@H](O)C2(F)F)c(=O)n1` [F2CMP, 2′-Deoxy-2′,2′-difluorocytidine-5′-monophosphate] here?
A: Its value is “F2CDP was generated enzymatically from F2CMP and ATP with human UMP/CMP kinase”.
